Reference: patent EP0456792B1, “IMPROVED SYSTEM FOR THE TRANSDERMAL APPLICATION OF PHARMACOLOGICALLY ACTIVE COMPOUNDS AT CONTROLLED pH” (Boehringer Ingelheim International GmbH, priority 1989, dated 1991)
Several values for one entry are separate records, joined by “and”; a condition that tells them apart may be missing. Equal entries are not always repeated.

How the values were obtained:
[1] = Flux rate of Clenbuterol through the skin as a function of the skin surface pH (Fig. 9); format: in vitro ADME, Mensch
From the text: Überraschenderweise wurde nun festgestellt, daß bei einer transdermalen Applikation von Clenbuterol die Fluxrate für den Wirkstoff entscheidend verbessert werden kann, wenn der pH-Wert der Hautoberfläche auf einen Wert konstant zwischen 6,0 und 8,5 gehalten wird.
Die Fluxrate eines Wirkstoffes durch die Haut ist definiert als Menge des Wirkstoffes pro Hautoberfläche und pro Zeiteinheit und wird üblicherweise in [µg/cm^2 . h] angegeben. In dem oben angegebenen pH-Bereich erreicht die Fluxrate für Clenbuterol ihr Maximum, während bei höheren und niederen pH-Werten die Fluxrate stark abnimmt.
Der pH-Wert der Hautoberfläche ist beim Menschen individuell und temporär verschieden. Ein als Standard angenommener pH-Wert von […] bis 6,0 schwankt im Individualfall zwischen pH 4,5 und 8,0 und hängt von vielen unterschiedlichen Faktoren ab. Schwankungen des pH-Wertes können daneben zum einen durch das Pflaster selbst und zum anderen durch den Wirkstoff hervorgerufen werden. Wie aus der Abb. I ersichtlich ist, nimmt die Fluxrate von Clenbuterol außerhalb des angegebenen pH-Bereichs drastisch ab, so daß eine ausreichende Permeabilität der Haut für Clenbuterol nicht mehr gewährleistet ist.
In Fig. 9 ist die Permeabilität P von Clenbuterol durch die menschliche Haut aufgetragen (Funktion A); P ist angegeben in [cm/sec]. […]

[2] = Permeability of pH-modified Clenbuterol CPA through human skin, Franz cell; format: in vitro ADME, Mensch; conditions: Zelle 1-3 are replicates
Description: Permeabilität von pH-Wort modifiziertem Clenbuterol CPA durch Humanhaut:
Zusammensetzung der CPA's:
Als Freigabeapparatur wurde eine Franz-Zelle verwendet. Dies ist eine übliche Methode, um die Abgabe von Arzneistoffen aus pharmazeutischen Formulierungen zu testen. Proben wurden nach 24 h bzw. 48h entnommen und der Gehalt an Clenbuterol bestimmt.

[3] = CPA pH-Wert 3.5 (5 % Clenbuterol, 5 % Zitronensäure, 90 % Eudragit E 30 D)
[4] = CPA pH-Wert 10.0 (5 % Clenbuterol, 5 % Na2CO3, 90 % Eudragit E 30 D)

In the case of `CC(C)(C)NCC(O)c1cc(Cl)c(N)c(Cl)c1` (stereo not drawn) [Clenbuterol], the Fluxrate ([1]; at pH values higher and lower than the range 6,0 to 8,5) is reported as “stark abnimmt”, the Fluxrate ([1]; skin surface pH between 6,0 and 8,5) is reported as “Maximum” and the “Clenbuterol Diffusion nach 24 h” value [2, 3] is reported as 3.48 µg/cm^2 and 0.65 µg/cm^2 and 2.64 µg/cm^2. The “Clenbuterol Diffusion nach 48 h” value [2, 3] was 5.52 µg/cm^2 and 1.69 µg/cm^2 and 6.04 µg/cm^2, the “Clenbuterol Diffusion nach 24 h” value [2, 4] was 7.8 µg/cm^2 and 11.44 µg/cm^2 and 9.84 µg/cm^2 and the “Clenbuterol Diffusion nach 48 h” value [2, 4] was 21.7 µg/cm^2 and 27.3 µg/cm^2 and 24.2 µg/cm^2.
